Source: the supplement of paper PMC9663587

Assays:
Paclitaxel = compound: CC(=O)O[C@H]1C(=O)[C@@]2(C)[C@H]([C@H](OC(=O)c3ccccc3)[C@]3(O)C[C@H](OC(=O)[C@H](O)[C@@H](NC(=O)c4ccccc4)c4ccccc4)C(C)=C1C3(C)C)[C@]1(OC(C)=O)CO[C@@H]1C[C@@H]2O [Paclitaxel]
R0-3306 = compound: C1=CC2=C(C=CC(=C2)C=C3C(=O)NC(=NCC4=CC=CS4)S3)N=C1 [R0-3306]
Flavopiridol [1] = compound: T1, CN1CC[C@H](c2c(O)cc(O)c3c(=O)cc(-c4ccccc4Cl)oc23)[C@H](O)C1 [Flavopiridol]
[2] = compound: CCC1=CN=CN=C1N2CCN(CC2)CC3=NC4=C(N3)C=C(C=C4)C(F)(F)F
AZD5363 = compound: NC1(C(=O)N[C@@H](CCO)c2ccc(Cl)cc2)CCN(c2nc[nH]c3nccc2-3)CC1 [AZD5363]
BSJ-03-123 [3] = compound: T2, CC(=O)c1c(C)c2cnc(Nc3ccc(N4CCN(CCOCCOCCOCCNC(=O)COc5cccc6c5C(=O)N(C5CCC(=O)NC5=O)C6=O)CC4)cn3)nc2n(C2CCCC2)c1=O [BSJ-03-123]
[4] = compound: CO[C@@H](C)Cn1c(=O)n(C)c2cnc3ccc(-c4cncc(C(C)(C)O)c4)cc3c21
Neratinib/HKI272 = compound: CCOc1cc2ncc(C#N)c(Nc3ccc(OCc4ccccn4)c(Cl)c3)c2cc1NC(=O)/C=C/CN(C)C [Neratinib/HKI272]
BVD523 = compound: CC(C)Nc1cc(-c2c[nH]c(C(=O)N[C@H](CO)c3cccc(Cl)c3)c2)c(Cl)cn1 [BVD523]
[5] = compound: CCN1CCN(Cc2ccc(Nc3ncc(F)c(-c4cc(F)c5nc(C)n(C(C)C)c5c4)n3)nc2)CC1; test: GR value, 72 h; higher = faster growth (1 = untreated, <0 = killing);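 further: breast cancer and non-malignant breast epithelial lines, nine half-log doses, viable cells counted by Hoechst and LIVE/DEAD dye imaging versus time-zero plates and DMSO controls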
YKL-5-124 = compound: C=CC(=O)Nc1ccc(C(=O)Nc2[nH]nc3c2CN(C(=O)N[C@H](CN(C)C)c2ccccc2)C3(C)C)cc1 [YKL-5-124]; test: as above
[6] = compound: CCc1cnn2c(NCc3ccc[n+]([O-])c3)cc(N3CCCC[C@H]3CCO)nc12; test: as above
Flavopiridol [7] = compound: T1, Flavopiridol; test: as above
BSJ-03-123 [8] = compound: T2, BSJ-03-123; test: as above
THZ1 = compound: CN(C)C/C=C/C(=O)Nc1ccc(C(=O)Nc2cccc(Nc3ncc(Cl)c(-c4c[nH]c5ccccc45)n3)c2)cc1 [THZ1]; test: as above
THZ531 = compound: CN(C)C/C=C/C(=O)Nc1ccc(C(=O)N2CCC[C@@H](Nc3ncc(Cl)c(-c4c[nH]c5ccccc45)n3)C2)cc1 [THZ531]; test: as above
LEE011/Ribociclib = compound: CN(C)C(=O)c1cc2cnc(Nc3ccc(N4CCNCC4)cn3)nc2n1C1CCCC1 [LEE011/Ribociclib]; test: as above
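Wherever GR50, 72 h is given: breast cancer and non-malignant breast epithelial cell lines, Deep Dye Drop or Dye Drop imaging, nine half-log doses, GR normalized to time-zero plates and DMSO-only controls.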

HS578T
GR50, 72 h (Paclitaxel): 0.00102 µM | GR50, 72 h (R0-3306): 4.28 µM | GR50, 72 h (Flavopiridol [1]): 0.148 µM | GR50, 72 h [2]: > 10 µM | GR50, 72 h (AZD5363): 4.82 µM | GR50, 72 h (BSJ-03-123 [3]): 1.45 µM | GR50, 72 h [4]: < 0.001 µM | GR50, 72 h (Neratinib/HKI272): 0.644 µM | GR50, 72 h (BVD523): 1.14 µM | GR value ([5]; 0.001 µM): 0.969 GR | GR value ([5]; 0.003162 µM): 0.776 GR | GR value ([5]; 0.01 µM): 0.699 GR | GR value ([5]; 0.03162 µM): 0.521 GR | GR value ([5]; 0.1 µM): 0.442 GR | GR value ([5]; 0.3162 µM): 0.268 GR | GR value ([5]; 1 µM): 0.217 GR | GR value ([5]; 3.162 µM): -0.238 GR | GR value ([5]; 10 µM): -0.576 GR | GR value (YKL-5-124; 0.001 µM): 0.455 GR | GR value (YKL-5-124; 0.003162 µM): 0.364 GR | GR value (YKL-5-124; 0.01 µM): 0.311 GR | GR value (YKL-5-124; 0.03162 µM): 0.239 GR | GR value (YKL-5-124; 0.1 µM): 0.242 GR | GR value (YKL-5-124; 0.3162 µM): 0.195 GR | GR value (YKL-5-124; 1 µM): 0.167 GR | GR value (YKL-5-124; 3.162 µM): 0.0237 GR | GR value (YKL-5-124; 10 µM): -0.462 GR | GR value ([6]; 0.0001 µM): 0.955 GR | GR value ([6]; 0.0003162 µM): 1.04 GR | GR value ([6]; 0.001 µM): 0.986 GR | GR value ([6]; 0.003162 µM): 1.02 GR | GR value ([6]; 0.01 µM): 0.313 GR | GR value ([6]; 0.03162 µM): -0.21 GR | GR value ([6]; 0.1 µM): -0.191 GR | GR value ([6]; 0.3162 µM): -0.216 GR | GR value ([6]; 1 µM): -0.237 GR | GR value (Flavopiridol [7]; 0.0001 µM): 1 GR | GR value (Flavopiridol [7]; 0.0003162 µM): 1.01 GR | GR value (Flavopiridol [7]; 0.001 µM): 0.977 GR | GR value (Flavopiridol [7]; 0.003162 µM): 0.969 GR | GR value (Flavopiridol [7]; 0.01 µM): 0.95 GR | GR value (Flavopiridol [7]; 0.03162 µM): 0.923 GR | GR value (Flavopiridol [7]; 0.1 µM): 0.711 GR | GR value (Flavopiridol [7]; 0.3162 µM): 0.107 GR | GR value (Flavopiridol [7]; 1 µM): -0.265 GR | GR value (BSJ-03-123 [8]; 0.001 µM): 0.971 GR | GR value (BSJ-03-123 [8]; 0.003162 µM): 0.905 GR | GR value (BSJ-03-123 [8]; 0.01 µM): 0.883 GR | GR value (BSJ-03-123 [8]; 0.03162 µM): 0.844 GR | GR value (BSJ-03-123 [8]; 0.1 µM): 0.79 GR | GR value (BSJ-03-123 [8]; 0.3162 µM): 0.74 GR | GR value (BSJ-03-123 [8]; 1 µM): 0.626 GR | GR value (BSJ-03-123 [8]; 3.162 µM): 0.521 GR | GR value (BSJ-03-123 [8]; 10 µM): -0.29 GR | GR value (THZ1; 0.0001 µM): 0.977 GR | GR value (THZ1; 0.0003162 µM): 1.03 GR | GR value (THZ1; 0.001 µM): 0.99 GR | GR value (THZ1; 0.003162 µM): 1.03 GR | GR value (THZ1; 0.01 µM): 0.784 GR | GR value (THZ1; 0.03162 µM): 0.125 GR | GR value (THZ1; 0.1 µM): -0.199 GR | GR value (THZ1; 0.3162 µM): -0.251 GR | GR value (THZ1; 1 µM): -0.371 GR | GR value (THZ531; 0.0001 µM): 1.04 GR | GR value (THZ531; 0.0003162 µM): 0.978 GR | GR value (THZ531; 0.001 µM): 1 GR | GR value (THZ531; 0.003162 µM): 1.03 GR | GR value (THZ531; 0.01 µM): 0.993 GR | GR value (THZ531; 0.03162 µM): 0.798 GR | GR value (THZ531; 0.1 µM): 0.051 GR | GR value (THZ531; 0.3162 µM): -0.213 GR | GR value (THZ531; 1 µM): -0.252 GR | GR value (LEE011/Ribociclib; 0.001 µM): 0.825 GR | GR value (LEE011/Ribociclib; 0.003162 µM): 0.861 GR | GR value (LEE011/Ribociclib; 0.01 µM): 0.73 GR | GR value (LEE011/Ribociclib; 0.03162 µM): 0.672 GR | GR value (LEE011/Ribociclib; 0.1 µM): 0.63 GR | GR value (LEE011/Ribociclib; 0.3162 µM): 0.621 GR | GR value (LEE011/Ribociclib; 1 µM): 0.591 GR | GR value (LEE011/Ribociclib; 3.162 µM): 0.513 GR | GR value (LEE011/Ribociclib; 10 µM): 0.373 GR
